# Measurements: publication PMC3751846, “BET Inhibition Silences Expression of MYCN and BCL2 and Induces Cytotoxicity in Neuroblastoma Tumor Models” (PLoS ONE, 2013)
# Where two headings read alike, the source gives them in different places.
# Legend:
# Assay in all cases: cells
# [1] = tested on: LA1-5s; design: species or system neuroblastoma cell lines; 6 day growth-death assay, CyQuant Direct read-out, mid-point of growth window (DMSO to T0); details: Neuroblastoma cell, 144 h; CyQuant, 6 days; read-out: gIC50 CyQuant
# Procedure: (§1) Cell line growth-death assays were performed as described, with a few modifications. Briefly, cells were seeded into 384-well or 96-well plates at a density optimized for 6 days of growth. The following day, T0 measurements were taken using CellTiter-Glo (CTG; Promega, Madison, WI), CellTiter-Fluor (Promega), or CyQuant Direct (Life Technologies), following the manufacturer’s instructions. Plates were read on an Envision (PerkinElmer, Waltham, MA), Safire 2 (Tecan, Durham, NC), or SpectraMax Gemini EM (Molecular Devices, Sunnyvale, CA) plate reader. […] Cells were incubated for 6 days and developed as described above. Results were plotted as a percentage of the T0 value, normalized to 100%, versus concentration of compound. A 4-parameter equation was used to generate concentration response curves. Growth IC50 (gIC50) values were calculated at the mid-point of the growth window (between DMSO and T0 values). Ymin-T0 values were calculated by subtracting the T0 value (100%) from the Ymin value on the curve, and are a measure of net population cell growth or death.
# [2] = tested on: SK-N-AS; design: species or system neuroblastoma cell lines; 6 day growth-death assay, CyQuant Direct read-out, mid-point of growth window (DMSO to T0); details: Homo sapiens, SK-N-AS, 144 h; CyQuant, 6 days; read-out: gIC50 CyQuant
# Procedure: as §1
# [3] = tested on: SK-N-BE(2); design: species or system neuroblastoma cell lines; 6 day growth-death assay, CyQuant Direct read-out, mid-point of growth window (DMSO to T0); details: Homo sapiens, SKNBE2, 144 h; CyQuant, 6 days; read-out: gIC50 CyQuant
# Procedure: as §1
# [4] = tested on: CHP-212; design: species or system neuroblastoma cell lines; 6 day growth-death assay, CyQuant Direct read-out, mid-point of growth window (DMSO to T0); details: Homo sapiens, CHP-212, 144 h; CyQuant, 6 days; read-out: gIC50 CyQuant
# Procedure: as §1
# [5] = tested on: LA1-5s; design: species or system neuroblastoma cell lines; 6 day growth-death assay, CellTiter-Fluor read-out, mid-point of growth window (DMSO to T0); details: Neuroblastoma cell, 144 h; CellTiter-Fluor, 6 days; read-out: gIC50 CellTiter-Fluor
# Procedure: as §1
# [6] = tested on: SK-N-AS; design: species or system neuroblastoma cell lines; 6 day growth-death assay, CellTiter-Fluor read-out, mid-point of growth window (DMSO to T0); details: Homo sapiens, SK-N-AS, 144 h; CellTiter-Fluor, 6 days; read-out: gIC50 CellTiter-Fluor
# Procedure: as §1
# [7] = tested on: SK-N-BE(2); design: species or system neuroblastoma cell lines; 6 day growth-death assay, CellTiter-Fluor read-out, mid-point of growth window (DMSO to T0); details: Homo sapiens, SKNBE2, 144 h; CellTiter-Fluor, 6 days; read-out: gIC50 CellTiter-Fluor
# Procedure: as §1
# [8] = tested on: CHP-212; design: species or system neuroblastoma cell lines; 6 day growth-death assay, CellTiter-Fluor read-out, mid-point of growth window (DMSO to T0); details: Homo sapiens, CHP-212, 144 h; CellTiter-Fluor, 6 days; read-out: gIC50 CellTiter-Fluor
# Procedure: as §1
smiles,measurement,setting,value
CC(=O)N1c2ccc(-c3ccc(C(=O)O)cc3)cc2[C@H](Nc2ccc(Cl)cc2)C[C@@H]1C [I-BET726],GI50,[1],10 nM
same,GI50,[2],135 nM
same,GI50,[3],80 nM
same,GI50,[4],10 nM
same,GI50,[5],25 nM
same,GI50,[6],130 nM
same,GI50,[7],20 nM
same,GI50,[8],30 nM
